In US9359645B2, “Methods for detecting diabetic nephropathy comprising measuring the expression of Smad1” (HUBIT GENOMIX INC., priority 2003, dated 2016):

System: Smad1
Test: Smad1 morpholino antisense oligonucleotide in AGEs-treated mesangial cells (Smad1 and Col4 expression)
Format: cell-based, mouse
Settings: for AGEs-mediated overproduction (overexpression) of Col4: mesangial cells treated with AGEs; for AGEs-mediated induction of Smad1: mesangial cells, 72 hr AGEs then 16 hr with oligo
Description: A glomerular mesangial cell strain was established from glomeruli isolated from normal, 4 week-old mice (C57BL/6JxSJL/J), and was identified according to the method previously described (S1). The mesangial cells were cultured in B medium (a 3:1 mixture of minimal essential medium/F12 modified with trace elements) supplemented with 1 mM glutamine, 100 units/ml penicillin, […] streptomycin and 20% fetal calf serum. The cultured cells fulfilled the criteria generally accepted for glomerular mesangial cells (S2). AGEs or BSA exposure was carried out as described previously (S3).
Mesangial cells were cultured in the presence of AGEs or BSA (as control) for 72 hours. Cells were harvested in sample buffer, resolved by SDS-polyacrylamide gel electrophoresis and transferred to nitro-cellulose membrane and subjected to Western blot using a 1:500 dilution of anti-Smad1 antibody and anti-pSmad1 antibody (Santa Cruz Biotechnology), followed by detection using an enhanced chemiluminescence detection system (Invitrogen, Carlsbad, Calif.).
Cultured cells were fixed in 4% paraformaldehyde. The following antibodies were used: anti-Smad1 antibody, 1:100 (Santa Cruz Biotechnology); anti-pSmad1 antibody, 1:100 (Calbiochem). An appropriate fluoresceine isothiocyanate-conjugated secondary antibody was used for visualization and imaging was done using a laser microscope and a fluorescent microscope (Olympus, Tokyo, Japan).
The antisense oligonucleotide used was a 25-nucleotide morpholino oligo (Genetools LLC, Philomath, Oreg.). The sequence is 5′-[…]-3′ (SEQ ID NO: 13). As a control, an oligo with the base composition 5′-CAtGCTcGTCACATTCAaAGCcGCT-3′ (SEQ ID NO: 18) was used. In vitro RNA transcription was performed as previously described (S7).

Substance	AGEs-mediated overproduction (overexpression) of Col4	AGEs-mediated induction of Smad1
Smad1 mismatch oligo: control oligo 5′-CAtGCTcGTCACATTCAaAGCcGCT-3′ (SEQ ID NO: 18) (CATGCTCGTCACATTCAAAGCCGCT; listed as DNA, chemistry not given here)	no effect	not
antisense oligo to Smad1: 25-nucleotide morpholino oligo, 5′-CAAGCTGGTCACATTCATAGCGGCT-3′ (SEQ ID NO: 13) (all phosphorodiamidate morpholino (PMO))	remarkably attenuates	completely abolished
